Measured values taken from US5902812A, “Pharmaceutical piperazine compounds” (Xenova Limited, priority 1994, dated 1999).
Structures can show the parent of a compound that is named as a salt. Where two headings read alike, the source gives them in different places.

Biological target: PAI-1 (Homo sapiens, UniProt P05121)
Assay: biochemical
[1] = PAI chromogenic substrate assay, read-out: IC50
[2] = 100 μM, read-out: Degree of inhibition in PAI chromogenic substrate assay
[3] = 6.25 μM, read-out: Degree of inhibition in PAI chromogenic substrate assay
[4] = 12.5 μM, read-out: Degree of inhibition in PAI chromogenic substrate assay

PAI-1, sequence (P05121 24-402): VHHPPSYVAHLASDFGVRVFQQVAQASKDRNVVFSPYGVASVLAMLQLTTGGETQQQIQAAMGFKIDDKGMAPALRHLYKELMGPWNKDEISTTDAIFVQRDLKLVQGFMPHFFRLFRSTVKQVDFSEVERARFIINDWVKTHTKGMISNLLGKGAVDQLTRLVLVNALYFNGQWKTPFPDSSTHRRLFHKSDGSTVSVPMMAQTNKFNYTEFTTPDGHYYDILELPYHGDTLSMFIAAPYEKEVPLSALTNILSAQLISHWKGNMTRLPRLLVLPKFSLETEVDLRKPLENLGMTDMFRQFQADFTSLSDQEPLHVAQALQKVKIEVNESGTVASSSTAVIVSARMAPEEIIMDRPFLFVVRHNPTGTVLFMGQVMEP
Description: In this assay, a compound is incubated with PAI-1 prior to addition to the tPA assay system. Inhibition of PAI-1 results in the production of plasmin from plasminogen. In turn, plasmin cleaves the chromogenic substrate S2251 (Kabi Vitrum) producing pNA (p-nitroaniline) which is detected spectrophotometrically at 405 nm (K. Nilsson et al, Fibrinolysis (1987) 1, 163-168).
Compounds of formula (A) were tested in a PAI chromogenic substrate assay. In the assay (K.Nilsson, Fibrinolysis (1987) 1, 163-168) each compound was incubated with PAI-1 prior to addition to the tPA assay system. […] In turn, the plasmin cleaved the chromogenic substrate S2251 (Kabi-Vitrum) producing pNA (p-nitroaniline) which was detected spectrophotometrically at 405 nm.

CN(C)CCCOc1ccc(/C=c2\[nH]c(=O)/c(=C/c3ccccc3Br)[nH]c2=O)cc1 [Compound 5060.HCl, (3Z,6Z)-3-(2-Bromobenzylidene)-6-(4-(3-dimethylaminopropoxy)benzylidene)-2,5-piperazinedione]
inhibition at 20 µM (20 μM (third part of Table 1), read-out: Degree of inhibition in PAI chromogenic substrate assay): 52%
inhibition at 50 µM (50 μM (third part of Table 1), read-out: Degree of inhibition in PAI chromogenic substrate assay): 65%
inhibition at 100 µM (100 μM (third part of Table 1), read-out: Degree of inhibition in PAI chromogenic substrate assay): 75%

CN(C)CCCOc1ccc(/C=c2\[nH]c(=O)/c(=C/c3ccc(Cl)c(Cl)c3)[nH]c2=O)cc1 [Compound 5236]
IC50 [1]: 2.8 µM

CN(C)CCCOc1ccc(/C=c2\[nH]c(=O)/c(=C/c3cccc(OC(F)(F)F)c3)[nH]c2=O)cc1 [Compound 5374, (3Z,6Z)-6-(4-(3-Dimethylaminopropoxy)benzylidene)-3-(3-trifluoromethoxybenzylidene)-2,5-piperazinedione]
IC50 [1]: 15 µM

CN(C)CCCN(CCCN(C)C)Cc1ccc(/C=c2\[nH]c(=O)/c(=C/c3ccccc3)[nH]c2=O)cc1 [Compound 1981, (3Z,6Z)-3-Benzylidene-6-(4-bis(3-dimethylaminopropyl)aminomethylbenzylidene)-2,5-piperazinedione]
Degree of inhibition in PAI chromogenic substrate assay (12.5 μM): 7%
Degree of inhibition in PAI chromogenic substrate assay (25 μM): 26%
Degree of inhibition in PAI chromogenic substrate assay (50 μM): 41%
Degree of inhibition in PAI chromogenic substrate assay (100 μM): 51%

CN(C)CCCOc1ccc(/C=c2\[nH]c(=O)/c(=C/c3cc([N+](=O)[O-])cc([N+](=O)[O-])c3)[nH]c2=O)cc1 [Compound 5381, (3Z,6Z)-6-(4-(3-Dimethylaminopropoxy)benzylidene)-3-(3,5-dinitrobenzylidene)-2,5-piperazinedione]
IC50 (IC50, PAI chromogenic substrate assay): 15 µM

CN(C)CCOc1ccc(/C=c2\[nH]c(=O)/c(=C/c3ccccc3)[nH]c2=O)c(Cl)c1.Cl [Compound 1960, (3Z,6Z)-6-Benzylidene-3-(2-chloro-4-(2-dimethylaminoethoxy)benzylidene)-2,5-piperazinedione, hydrochloride]
Degree of inhibition in PAI chromogenic substrate assay (6.25 μM): 56%
Degree of inhibition in PAI chromogenic substrate assay (12.5 μM): 63%
Degree of inhibition in PAI chromogenic substrate assay (25 μM): 67%
Degree of inhibition in PAI chromogenic substrate assay (50 μM): 64%
inhibition at 100 µM [2]: 32%

CN(C)CCCOc1ccc(/C=c2\[nH]c(=O)/c(=C/c3ccc(C(N)=O)cc3)[nH]c2=O)cc1 [Compound 5246, 4-((3Z,6Z)-6-(4-(3-Dimethylaminopropoxy)benzylidene)-2,5-dioxo-3-piperazinylidene)methylbenzamide]
Degree of inhibition in PAI chromogenic substrate assay (20 μM (third part of Table 1), 20 µM): 34%

CCCCCCOc1ccc(/C=c2\[nH]c(=O)/c(=C/c3ccc(OC)cc3)[nH]c2=O)cc1 [Compound 1907, (3Z,6Z)-3-(4-Hexyloxybenzylidene)-6-(4-methoxybenzylidene)-2,5-piperazinedione]
inhibition at 6.25 µM [3]: 10%
inhibition at 12.5 µM [4]: 23%
inhibition at 25 µM (25 μM, read-out: Degree of inhibition in PAI chromogenic substrate assay): 37%
inhibition at 50 µM (50 μM, read-out: Degree of inhibition in PAI chromogenic substrate assay): 69%
inhibition at 100 µM [2]: 80%

CN(C)CCOc1ccc(/C=c2\[nH]c(=O)/c(=C/c3ccccc3)[nH]c2=O)c(OCCN(C)C)c1 [Compound 1969]
inhibition at 6.25 µM [3]: 2%
inhibition at 12.5 µM [4]: 0%
Degree of inhibition in PAI chromogenic substrate assay (25 μM): 6%
Degree of inhibition in PAI chromogenic substrate assay (50 μM): 20%
Degree of inhibition in PAI chromogenic substrate assay (100 μM): 52%

CN(C)CCCOc1ccc(/C=c2\[nH]c(=O)/c(=C/c3cccc(Br)c3)[nH]c2=O)cc1 [Compound 5375, (3Z,6Z)-3-(3-Bromobenzylidene)-6-(4-(3-dimethylaminopropoxy)benzylidene)-2,5-piperazinedione]
IC50 [1]: 4.5 µM

CN(C)CCCOc1ccc(/C=c2\[nH]c(=O)/c(=C/c3cccc([N+](=O)[O-])c3)[nH]c2=O)cc1 [Compound 5209, (3Z,6Z)-6-(4-(3-Dimethylaminopropoxy)benzylidene)-3-(3-nitrobenzylidene)-2,5-piperazinedione]
IC50 [1]: 1.4 µM
